Experimental data reported in patent US10654896B2, “FoxP3-binding peptides and uses thereof” (FUNDACIÓN PARA LA INVESTIGACIÓN MÉDICA APLICADA, priority 2016, dated 2020).
Where a SMILES comes first, the peptide text is derived from it. [ ]: non-standard residue; d: D form.

What was measured:
human FOXP3 (FOXP3-6His) = molecular target: T1, human FOXP3 (FOXP3-6His) (Homo sapiens, UniProt Q9BZS1); assay: Peptide binding to FOXP3 by surface plasmon resonance (SPR); settings: peptides 1-20 μM; ratio to p60 (SEQ ID NO: 1)
T1 construct: 6xHis (C); made in house; host or cells: E. coli BL21 (DE3)
T1 sequence (Q9BZS1 1-431): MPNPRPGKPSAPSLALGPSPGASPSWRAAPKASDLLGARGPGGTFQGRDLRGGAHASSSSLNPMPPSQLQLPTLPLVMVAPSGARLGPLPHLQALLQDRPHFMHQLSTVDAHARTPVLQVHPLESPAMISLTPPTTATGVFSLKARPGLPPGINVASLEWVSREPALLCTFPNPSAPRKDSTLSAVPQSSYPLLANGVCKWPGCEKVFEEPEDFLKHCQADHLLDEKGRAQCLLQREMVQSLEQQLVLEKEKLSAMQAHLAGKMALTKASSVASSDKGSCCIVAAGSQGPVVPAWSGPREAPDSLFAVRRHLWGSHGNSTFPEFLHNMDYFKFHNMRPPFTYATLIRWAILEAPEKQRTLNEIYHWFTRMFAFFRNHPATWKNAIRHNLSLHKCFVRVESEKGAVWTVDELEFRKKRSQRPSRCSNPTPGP
Summary of the method: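 C-terminally 6His-tagged human FOXP3, expressed in E. coli BL21(DE3) and Ni-affinity purified, was amine-coupled to a GLM chip (ProteOn XPR36). Peptides at 1–20 μM injected in triplicate in PBS, 0.005% Tween 20, pH 7.4, at 30 μl/min, with interspot reference. Binding given as ratio to reference peptide p60.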

[1] = molecular target: T2, FOXP3/Runx1 heterodimerization (Homo sapiens, UniProt Q9BZS1); assay: FOXP3/Runx1 heterodimerization inhibition (Alphascreen); type: biochemical; settings: for inhibition at 2.5 µM: read-out: Foxp3-Runx1 Inhibition % inhibition (2.5 μM)
T2 construct: made in house; host or cells: E. coli BL21 (DE3)
T2 sequence (Q9BZS1 1-431): T1 sequence (Q9BZS1 1-431)
Text: Plasmid pET20b FOXP3-His was generated to produce the human FOXP3 tagged with 6 histidines at the C terminus of the protein. Briefly, plasmid pDEST15-FOXP3 (provided by Dr. Casal, Madrid, Spain) was used as template to amplify FOXP3 by PCR using the primers Upper FOXP3 Ndel catatgcccaaccccaggc (SEQ ID NO: 55) and Lower FOXP3 […] (SEQ ID NO: 56). The resulting fragment was subcloned in pET20b at Ndel and NotI sites. pET45b His-Runx1 was obtained by PCR of activated human CD4 T cells obtained from healthy volunteers (after the signature of an informed consent) using the primers Upper Runx1 atgcgtatccccgtagatg (SEQ ID NO: 57) and Lower Runx1 […] (SEQ ID NO: 58) and the fragment was cloned in pcDNA3.1. Then, pET45b and pcDNA3.1-Runx1 were digested with BamHI and NotI and ligated to obtain pET45b-Runx1. Plasmids were used to transform BL21 cells (DE3; Novagen, Schwalbach, Germany) for the expression of the recombinant protein. The transformed BL21 cells were grown in LB medium at 37° C. (1 liter of final culture medium) (with ampicilin 0.1 mg/ml). Once the OD of the culture was between 0.5 and 1.0, IPTG (0.4 mM, final concentration) was added. Bacteria were then cultured overnight in agitation and centrifuged for 10 min at 8000 rpm. Cell pellet was then resuspended in 4 ml Tris-HCl 0.1 M and frozen at −80° C. Cell pellet was then thawed and incubated with lisozyme (25 KU) and a protease inhibitor cocktail for 15 min at 30° C. before cell lysis induced with a French-press. The resultant pool was then centrifuged during 20 min at 11.000 rpm). The recombinant protein was purified from the soluble fraction of French-press cell extracts by affinity chromatography (Histrap, Pharmacia) following manufacturer's instructions and using an FPLC platform (AKTA, Pharmacia). Plasmid pDEST15-FOXP3 encoding the fusion protein GST-FOXP3 (GST fused to the isoform A from human FOXP3 gene), was transformed into BL21 cells for the expression of the recombinant protein. GST-FOXP3 protein was purified from the soluble fraction of cell extracts obtained, as described above, by affinity chromatography (GSTrap; Amersham, Piscataway, N.J.) using a fast protein liquid chromatography platform (AKTA; Amersham) following manufacturer's instructions. The eluted proteins were desalted using Hitrap desalting columns (Pharmacia) and analyzed by SDS-PAGE using Coomassie blue (Bio-Safe Coomassie reagent; Bio-Rad, Hercules, Calif.) and by Western blot.
It has been described that dimerization of FOXP3 is required for its function as a transcriptional regulator. Moreover, interaction between FOXP3 and the transcription factor Runx1, is crucially required for normal hematopoiesis including thymic T-cell development, but also for Treg suppressor activity (Reviewed in Lozano et al, Front Oncol. 2013, 3:294). Both activities are mediated by the intermediate region of Foxp3, which is the area of interaction between P60 and Foxp3. Thus, we studied the effect of P60 and their mutants on the FOXP3/Runx1 heterodimerization, as well as FOXP3/FOXP3 homodimerization by Alphascreen technology according to the manufacturer's instructions (Perkin Elmer, Benelux). AlphaScreen™ is a bead-based technology that is designed to measure the proximity of donor and acceptor beads conjugated to biomolecules of interest.
To measure Foxp3-Runx1 interactions, Foxp3-GST and […] proteins were used.
Recombinant Runx1 expressed in E. Coli with a hexa-histidine tag (obtained as disclosed in section (1) above) was captured by nickel chelate acceptor beads following manufacturer's instructions, whereas the recombinant FOXP3 expressed with a GST tag was captured by glutathione donor beads (Perkin Elmer) following manufacturer's instructions. His-tagged Runx1 (46 nM final concentration) was incubated with 100 nM GST-FOXP3 and the peptides to be tested (added at different concentrations from 1 to 100 μM) for 1 h at room temperature. […]

Row | Molecule | Binding to Foxp3 Ratio binding Peptide/p60 (fold change) (human FOXP3 (FOXP3-6His)) | inhibition at 2.5 µM [1] [%] | inhibition at 100 µM ([1]; read-out: Foxp3-Runx1 Inhibition % inhibition (100 μM)) [%]
1 | CSCC[C@H](NC(=O)[C@H](C)NC(=O)[C@H](Cc1ccccc1)NC(=O)[C@H](Cc1ccccc1)NC(=O)[C@@H]1CCCN1C(=O)[C@H](Cc1c[nH]c2ccccc12)NC(=O)[C@H](CCSC)NC(=O)[C@H](CCCCN)NC(=O)[C@H](CCCNC(=N)N)NC(=O)[C@H](Cc1ccccc1)NC(=O)[C@H](CO)NC(=O)[C@H](CCC(N)=O)NC(=O)[C@H](Cc1ccccc1)NC(=O)[C@@H](CC(=O)O)NC(=O)[C@@H](N)CCCNC(=N)N)C(=O)O [compound 3] (H-R[dD]FQSFRKMWPFFAM-OH) | 2.8 |  | 
2 | CSCC[C@H](NC(=O)[C@H](C)NC(=O)[C@H](Cc1ccccc1)NC(=O)[C@H](Cc1ccccc1)NC(=O)[C@@H]1CCCN1C(=O)[C@H](Cc1c[nH]c2ccccc12)NC(=O)[C@H](CCSC)NC(=O)[C@H](CCCCN)NC(=O)[C@H](CCCNC(=N)N)NC(=O)[C@H](Cc1ccccc1)NC(=O)[C@H](CO)NC(=O)[C@H](CCC(N)=O)NC(=O)[C@H](Cc1ccccc1)NC(=O)[C@H](C)NC(=O)[C@H](N)CCCNC(=N)N)C(=O)O [compound 46] (H-[dR]AFQSFRKMWPFFAM-OH; N-terminus and C-terminus assumed) | 2.7 | 95 | 
3 | CSCC[C@H](NC(=O)[C@H](CCCCN)NC(=O)[C@H](CCCNC(=N)N)NC(=O)[C@H](Cc1ccccc1)NC(=O)[C@H](CO)NC(=O)[C@H](CCC(N)=O)NC(=O)[C@H](Cc1ccccc1)NC(=O)[C@H](C)NC(=O)[C@@H](N)CCCNC(=N)N)C(=O)N[C@@H](Cc1c[nH]c2ccccc12)C(=O)N1CCC[C@H]1C(=O)N[C@@H](Cc1ccccc1)C(=O)N[C@@H](Cc1ccccc1)C(=O)N[C@@H](C)C(=O)N[C@H](CCSC)C(=O)O [compound 47] (H-RAFQSFRKMWPFFA[dM]-OH; N-terminus and C-terminus assumed) | 1.7 | 75 | 
4 | CSCC[C@H](NC(=O)[C@H](CCCCN)NC(=O)[C@H](CCCNC(=N)N)NC(=O)[C@H](Cc1ccccc1)NC(=O)[C@H](CO)NC(=O)[C@H](CCC(N)=O)NC(=O)[C@H](Cc1ccccc1)NC(=O)[C@H](C)NC(=O)[C@H](N)CCCNC(=N)N)C(=O)N[C@@H](Cc1c[nH]c2ccccc12)C(=O)N1CCC[C@H]1C(=O)N[C@@H](Cc1ccccc1)C(=O)N[C@@H](Cc1ccccc1)C(=O)N[C@@H](C)C(=O)N[C@H](CCSC)C(=O)O [compound 48] (H-[dR]AFQSFRKMWPFFA[dM]-OH; N-terminus and C-terminus assumed) | 2.5 | 70 | 
5 | CSCC[C@@H]1NC(=O)[C@H](C)NC(=O)[C@H](Cc2ccccc2)NC(=O)[C@H](Cc2ccccc2)NC(=O)[C@@H]2CCCN2C(=O)[C@H](Cc2c[nH]c3ccccc23)NC(=O)[C@H](CCSC)NC(=O)[C@H](CCCCN)NC(=O)[C@H](CCCNC(=N)N)NC(=O)[C@H](Cc2ccccc2)NC(=O)[C@H](C)NC(=O)[C@H](CCC(N)=O)NC(=O)[C@H](Cc2ccccc2)NC(=O)[C@H](C)NC(=O)[C@H](CCCNC(=N)N)NC1=O [compound 50] (cyclo(RAFQAFRKMWPFFAM)) |  | 60 | 
6 | H-RDFQSFRKMWPFFAM-OH [compound 1] | 1.0 |  | 54.5
